Patent US11060715B2, “Ex vivo proliferation of epithelial cells” (PROPAGENIX INC., priority 2015, dated 2021)
Structures can show the parent of a compound that is named as a salt.

Key:
[1] = test system: late passage prostate epithelial cells; assay: Proliferation of late passage prostate epithelial cells in KSFM plus compounds, 5 days; format: cell-based, human; settings: 5 μM; for total cell number after 5 days: KSFM plus individual compound alone, 1 μM and 0.2 μM (FIG. 16); for cell proliferation after 5 days: used together with A83-01 in KSFM, 1 μM and 0.2 μM (FIG. 17)
Procedure: Stocks of certain chemicals used in the study were prepared by dissolving in DMSO to 10 mM. The chemical stocks were added to culture media to desired final concentrations, as described in Examples 2 to 5 and shown in FIGS. 1 to 17, from the time when cell culture was initiated.
In a control experiment with no added compound, there was minimum increase of cell numbers after 5 days.
In control experiment with no inhibitor added to KSFM, there was minimum increase of cell numbers after 5 days. […] As described above, these include Rho kinase inhibitors (i.e., Rho-associated protein kinase inhibitors) such as Y-27632, SR 3677, GSK 429286 and Thiazovivin; PAK1 inhibitor IPA-3; and myosin II inhibitor (i.e., non-muscle myosin II (NM II) inhibitor) Blebbistatin.

keratinocytes = assay: Expansion of keratinocytes in KSFM supplemented with combinations of components; format: cell-based, human; settings: for cell growth rate: KSFM with EGF, isoproterenol, A 83-01 and rHA
Procedure: In another experiment, keratinocytes were cultured in KSFM supplemented with various combinations of components.
In another experiment, keratinocytes were cultured in the presence of increasing doses of ROCK inhibitor (Y-27632) or Myosin II ATPase inhibitor (blebbistatin), in KSFM supplemented with EGF (0.5 ng/mL), isoproterenol (3 μM), A 83-01 (1 μM), and recombinant human serum albumin (expressed in rice; 100 μg/mL).
In another experiment, keratinocytes were cultured in the presence of increasing doses (between 10 nM to 2 μM) of retinoic acid receptors (RAR) antagonist BMS-453 or retinoic acid receptors (RAR) antagonist BMS-195614, in KSFM supplemented with EGF (0.5 ng/mL), isoproterenol (3 μM), A 83-01 (1 μM), and recombinant human serum albumin (expressed in rice; 100 μg/mL).

[2] = increasing doses (between 10 nM to 2 μM)

In the case of `CN(C)CCOc1cc(-c2cn[nH]c2)ccc1NC(=O)C1COc2ccccc2O1` (centres unmarked) [SR 3677, N-[2-[2-(Dimethylamino)ethoxy]-4-(1H-pyrazol-4-yl)phenyl-2,3-dihydro-1,4-benzodioxin-2-carboxamidedihydrochloride], the “total cell number after 5 days” value [1] is reported as “slight increase of total cell numbers” and the “cell proliferation after 5 days” value [1] is reported as “synergistically increased”.

In the case of `O=C(NCc1ccccc1)c1csc(Nc2ccncn2)n1` [Thiazovivin, N-Benzyl-[2-(pyrimidin-4-yl)amino]thiazole-4-carboxamide], the “total cell number after 5 days” value [1] is reported as “slight increase of total cell numbers” and the “cell proliferation after 5 days” value [1] is reported as “synergistically increased”.

In the case of `CC1(C)CC=C(c2cnc3ccccc3c2)c2cc(C(=O)Nc3ccc(C(=O)O)cc3)ccc21` [BMS-195614], the cell growth rate (keratinocytes; [2]) is reported as “further enhance cell growth rate at sub-micromolar doses”.

For `Cc1ccc2c(c1)C(=O)C1(O)CCN(c3ccccc3)C1=N2` (racemic) [Blebbistatin, (±)-1,2,3,3a-Tetrahydro-3a-hydroxy-6-methyl-1-phenyl-4H-pyrrolo[2,3-b]quinolin-4-one], the “total cell number after 5 days” value [1] was “did not increase proliferation”, the “cell proliferation after 5 days” value [1] was “synergistically increased” and the cell growth rate (keratinocytes; increasing doses) was “No significant increase of cell growth rate”.

With `CC1=C(C(=O)Nc2cc3cn[nH]c3cc2F)C(c2ccc(C(F)(F)F)cc2)CC(=O)N1` (centres unmarked) [GSK 429286, 4-[4-(Trifluoromethyl)phenyl]-N-(6-Fluoro-1H-indazol-5-yl)-2-methyl-6-oxo-1,4,5,6-tetrahydro-3-pyridinecarboxamide] the “total cell number after 5 days” value [1] was “slight increase of total cell numbers” and the “cell proliferation after 5 days” value [1] was “synergistically increased”.

`Cc1cccc(-c2n[nH]cc2-c2ccc3ncccc3n2)n1` [RepSox, 2-(3-(6-Methylpyridine-2-yl)-1H-pyrazol-4-yl)-1,5-naphthyridine] was tested, and the “total cell number after 5 days” value [1] was “pronounced increase of total cell number” and the “cell proliferation after 5 days” value [1] was “little extra increase”.

In the case of `CC1(C)CC=C(c2ccccc2)c2cc(/C=C/c3ccc(C(=O)O)cc3)ccc21` [BMS-453], the proliferation of keratinocytes (keratinocytes; 100 nM, with A83-01, EGF, isoproterenol and rHA) is reported as “further increased the proliferation of keratinocytes” and the cell growth rate (keratinocytes; [2]) is reported as “further enhance cell growth rate at sub-micromolar doses”.

In the case of `NC(=O)c1ccc(-c2nc(-c3ccc4c(c3)OCO4)c(-c3ccccn3)[nH]2)cc1` [SB 431542, 4-[4-(1,3-benzodioxol-5-yl)-5-(2-pyridinyl)-1H-imidazol-2-yl]benzamide], the “total cell number after 5 days” value [1] is reported as “pronounced increase of total cell number” and the “cell proliferation after 5 days” value [1] is reported as “little extra increase”.

With `O=C(NC1CCOCC1)c1ccc(-c2cc(-c3c[nH]nc3-c3ccccn3)ccn2)cc1` [GW 788388, 4-[4-[3-(2-Pyridinyl)-1H-pyrazol-4-yl]-2-pyridinyl]-N-(tetrahydro-2H-pyran-4-yl)-benzamide] the “total cell number after 5 days” value [1] was “pronounced increase of total cell number” and the “cell proliferation after 5 days” value [1] was “little extra increase”.

`Oc1ccc2ccccc2c1SSc1c(O)ccc2ccccc12` [IPA-3, 1,1′-Dithiodi-2-naphthtol] was tested, and the “total cell number after 5 days” value [1] was “did not increase proliferation” and the “cell proliferation after 5 days” value [1] was “synergistically increased”.
